From patent US11352350B2, “IRAK degraders and uses thereof” (Kymera Therapeutics, Inc., priority 2018, dated 2022)
Where two headings read alike, the source gives them in different places.

How the values were obtained:
IRAK4 = IRAK4 (Homo sapiens (Human), UniProt Q9NWZ3); test: IRAK4 MSD degradation in OCI-LY10; format: cell-based
Outline: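 OCI-LY10 cells treated with 8-point 1:3 dilutions (top 1 to 10 μM final) for 4 to 24 h at 37° C. Lysate IRAK4 measured by MSD sandwich immunoassay (2H9 capture, Y279 detection, SULFO-TAG anti-rabbit). DC50 from three-parameter logistic fit.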

OCI-LY10 = test: CTG Cell Viability Assay - OCI-LY10; format: cell-based, human; conditions: OCI-LY10, 4 days, read-out: CTG Cell Viability Assay - OCI-LY10: Average external-IC50
Outline: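 OCI-LY10 cells exposed to 9-dose, 1:3 dilutions from 10 μM top (0.2% DMSO) for 4 days at 37° C, 5% CO2. Viability by CellTiter-Glo luminescence; IC50 from three-parameter logistic fit.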

[1] = OCI-LY10, 4 hrs, MSD, read-out: IRAK4 MSD degradation in OCI-LY10 at 4 hrs: Average external-Abs DC50
[2] = OCI-LY10, 24 hrs, MSD, read-out: IRAK4 MSD degradation in OCI-LY10 at 24 hrs: Average external-Abs DC50
[3] = OCI-LY10, 4 hrs, read-out: IRAK4 MSD degradation in OCI-LY10 at 4 hrs: DC50
[4] = OCI-LY10, 24 hrs, read-out: IRAK4 MSD degradation in OCI-LY10 at 24 hrs: DC50

Sequence of IRAK4 (Q9NWZ3 whole entry): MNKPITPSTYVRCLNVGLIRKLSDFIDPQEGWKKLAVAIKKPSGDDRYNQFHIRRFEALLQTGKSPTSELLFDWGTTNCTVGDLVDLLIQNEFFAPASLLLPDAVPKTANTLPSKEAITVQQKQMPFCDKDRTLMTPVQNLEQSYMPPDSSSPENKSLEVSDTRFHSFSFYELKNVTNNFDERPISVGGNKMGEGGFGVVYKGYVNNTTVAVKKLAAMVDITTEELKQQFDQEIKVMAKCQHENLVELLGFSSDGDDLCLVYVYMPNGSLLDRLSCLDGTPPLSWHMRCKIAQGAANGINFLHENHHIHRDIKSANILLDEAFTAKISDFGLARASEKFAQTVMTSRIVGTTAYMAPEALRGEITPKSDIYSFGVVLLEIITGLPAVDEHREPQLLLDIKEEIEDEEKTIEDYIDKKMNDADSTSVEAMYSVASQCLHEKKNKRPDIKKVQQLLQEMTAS

O=C1CCC(N2Cc3c(NCC4CCN(C[C@H]5CC[C@H](C6N=C(NC(=O)c7cnn8ccc(N9C[C@H]%10C[C@@H]9CO%10)nc78)C(C(F)F)=N6)CC5)CC4)cccc3C2=O)C(=O)N1 (some centres unmarked) [I-380]
DC50 (IRAK4; [1]): 100 to 1000 nM | DC50 (IRAK4; [2]): 10 to 100 nM | IC50 (OCI-LY10; Homo sapiens, OCI-Ly10, 96 h): > 1000 nM

CN(CCCNc1cccc2c1C(=O)N(C1CCC(=O)NC1=O)C2=O)C1CCN(C(=O)[C@H]2CC[C@H](n3cc(NC(=O)c4cnn5ccc(C6C[C@H]7C[C@@H]6CO7)nc45)c(C(F)F)n3)CC2)CC1 (some centres unmarked) [I-358]
DC50 (IRAK4; [1]): > 1000 nM | DC50 (IRAK4; [2]): 10 to 100 nM | IC50 (OCI-LY10; Homo sapiens, OCI-Ly10, 96 h): 50 to 100 nM

O=C1CCC(N2C(=O)c3cccc(NCCCOC[C@@H]4CN(C[C@H]5CC[C@H](n6cc(NC(=O)c7cnn8ccc(N9C[C@H]%10C[C@@H]9CO%10)nc78)c(C(F)F)n6)CC5)CCO4)c3C2=O)C(=O)N1 (some centres unmarked) [I-352]
DC50 (IRAK4; [1]): > 1000 nM | DC50 (IRAK4; [2]): 10 to 100 nM | IC50 (OCI-LY10; Homo sapiens, OCI-Ly10, 96 h): 500 to 1000 nM

O=C1CCC(N2C(=O)c3cccc(OCCCOC4CCN(C[C@H]5CC[C@H](n6cc(NC(=O)c7cnn8ccc(N9CCOCC9)nc78)c(C(F)F)n6)CC5)CC4)c3C2=O)C(=O)N1 (some centres unmarked) [I-297]
DC50 (IRAK4; [1]): 10 to 100 nM | IC50 (OCI-LY10): > 1000 nM

CN(CCN1CCO[C@@H](CNc2cccc3c2C(=O)N(C2CCC(=O)NC2=O)C3=O)C1)C[C@H]1CC[C@H](n2cc(NC(=O)c3cnn4ccc(N5C[C@H]6C[C@@H]5CO6)nc34)c(C(F)F)n2)CC1 (some centres unmarked) [I-500]
DC50 (IRAK4; [3]): 100 to 1000 nM | DC50 (IRAK4; [4]): 10 to 100 nM | IC50 (OCI-LY10; Homo sapiens, OCI-Ly10, 96 h): 50 to 100 nM

O=C1CCC(N2C(=O)c3cccc(N[C@H]4C[C@H](OC5CCN(C[C@H]6CC[C@H](n7cc(NC(=O)c8cnn9ccc(N%10C[C@H]%11C[C@@H]%10CO%11)nc89)c(C(F)F)n7)CC6)CC5)C4)c3C2=O)C(=O)N1 (some centres unmarked) [I-505]
DC50 (IRAK4; [3]): 10 to 100 nM | DC50 (IRAK4; [4]): < 10 nM | IC50 (OCI-LY10; Homo sapiens, OCI-Ly10, 96 h): > 1000 nM

Cn1c(=O)n(C2CCC(=O)NC2=O)c2ccc(CCCOCCOCC(F)CNC(=O)c3cnc(Nc4ccc5cnccc5n4)cc3NC3CC3)cc21 (centres unmarked) [I-138]
DC50 (IRAK4; [1]): > 1000 nM | DC50 (IRAK4; [2]): > 1000 nM | IC50 (OCI-LY10; Homo sapiens, OCI-Ly10, 96 h): > 1000 nM

Cc1ncsc1-c1ccc(CNC(=O)[C@@H]2C[C@@H](O)CN2C(=O)[C@@H](NC(=O)COCCOCCOCC(=O)N2CCN([C@H]3CC[C@H](Nc4ncnc5cc(CC#N)ccc45)CC3)CC2)C(C)(C)C)cc1 [I-50]
DC50 (IRAK4; [1]): > 1000 nM | IC50 (OCI-LY10; Homo sapiens, OCI-Ly10, 96 h): > 1000 nM

CN(CCOCCNCc1cccc2c1n(C)c(=O)n2C1CCC(=O)NC1=O)C[C@H]1CC[C@H](n2cc(NC(=O)c3coc(-c4ccnc(NCC5CC5)c4)n3)c(C(F)F)n2)CC1 (some centres unmarked) [I-237]
DC50 (IRAK4; [1]): < 10 nM | IC50 (OCI-LY10; Homo sapiens, OCI-Ly10, 96 h): > 1000 nM

CN1C(=O)CCC(n2c(=O)n(C)c3c(CN4CCC(N(C)C[C@H]5CC[C@H](n6cc(NC(=O)c7coc(-c8ccnc(NCC9CC9)c8)n7)c(C(F)F)n6)CC5)CC4)cccc32)C1=O (some centres unmarked) [I-247]
DC50 (IRAK4; [1]): 100 to 1000 nM | IC50 (OCI-LY10; Homo sapiens, OCI-Ly10, 96 h): > 1000 nM

O=C1CCC(N2C(=O)c3cccc(NCC(=O)N4CC5(CCN(C[C@H]6CC[C@H](n7cc(NC(=O)c8cnn9ccc(N%10CCOCC%10)nc89)c(C(F)F)n7)CC6)CC5)C4)c3C2=O)C(=O)N1 (some centres unmarked) [I-443]
DC50 (IRAK4; [3]): < 10 nM | DC50 (IRAK4; [4]): < 10 nM | IC50 (OCI-LY10; Homo sapiens, OCI-Ly10, 96 h): < 50 nM

O=C1CCC(N2C(=O)c3cccc(NCCCOC4CCN(C[C@H]5CC[C@H](n6cc(NC(=O)c7cnn8ccc(N[C@@H]9CCCC[C@@H]9O)nc78)c(C(F)F)n6)CC5)CC4)c3C2=O)C(=O)N1 (some centres unmarked) [I-294]
DC50 (IRAK4; [1]): 10 to 100 nM | IC50 (OCI-LY10; Homo sapiens, OCI-Ly10, 96 h): < 50 nM

Cn1c(=O)n(C2CCC(=O)NC2=O)c2ccc(CN3CCC(CN4CCC(n5cc(NC(=O)c6coc(-c7ccnc(NCC8CC8)c7)n6)c(C(F)F)n5)CC4)CC3)cc21 (centres unmarked) [I-182]
DC50 (IRAK4; [1]): 100 to 1000 nM | IC50 (OCI-LY10; Homo sapiens, OCI-Ly10, 96 h): > 1000 nM

CC[C@@H]1[C@H](F)C(=O)N[C@@H]1COc1ncc(C#C[C@H]2CC[C@H](CN(C)C3CCN(Cc4ccc5c(c4)n(C)c(=O)n5C4CCC(=O)NC4=O)CC3)CC2)c2cc(C(N)=O)c(OC)cc12 (some centres unmarked) [I-190]
DC50 (IRAK4; [1]): 100 to 1000 nM | DC50 (IRAK4; [2]): 10 to 100 nM | IC50 (OCI-LY10; Homo sapiens, OCI-Ly10, 96 h): > 1000 nM

Cn1c(=O)n(C2CCC(=O)NC2=O)c2cccc(CN3CCC4(CC3)CCN(C[C@H]3CC[C@H](n5cc(NC(=O)c6coc(-c7ccnc(NCC8CC8)c7)n6)c(C(F)F)n5)CC3)CC4)c21 (some centres unmarked) [I-245]
DC50 (IRAK4; [1]): 10 to 100 nM | IC50 (OCI-LY10; Homo sapiens, OCI-Ly10, 96 h): < 50 nM
